Experimental data as given in US4740233A, “Substituted 1,2,4-triazolo[1,5-a]-pyrimidine-2-sulfonamides and compositions and methods of controlling undesired vegetation and suppressing the nitrification of ammonium nitrogen in soil” (The Dow Chemical Company, priority 1986, dated 1988).

Tested on: nitrification of ammonium nitrogen
Assay: Suppression of nitrification of ammonium nitrogen in soil
Conditions: 27° C.
Method: A sufficient volume of water was added to 20 g of the soil in a wide-mouth, screw-cap, 4-ounce, glass bottle, such that the moisture content of the mixture was made equal to the 1/3 bar tension value for that soil. The mixture was thoroughly mixed before sealing. […] Acetone slows the rate of soil nitrification and its concentration must be carefully controlled. Single samples of each test chemical were incubated for two weeks at 27° C.
The experiment comprised the following types of samples:
The soil samples were analyzed as follows: Sufficient ammonium sulfate extracting solution was added to the sample, such that the total volume of added water was 50 ml (included water added during sample preparation). The capped mixture was shaken 10 minutes to solubilize nitrate and the soil particulates were allowed to settle. The nitrate concentration in the water phase was determined with a nitrate-specific ion electrode such as Orion Model 93-07.
The non-nitrate nitrogen remaining (% NH4 -N remaining) in the soil after two weeks (performance value) was calculated as follows: [formula]

SMILES	% NH4-N Remaining After 2 Weeks Incubation (0.06 ppm)	% NH4-N Remaining After 2 Weeks Incubation (0.25 ppm)	% NH4-N Remaining After 2 Weeks Incubation (1 ppm)	% NH4-N Remaining After 2 Weeks Incubation (4 ppm)	% NH4-N Remaining After 2 Weeks Incubation (0.01 ppm)	% NH4-N Remaining After 2 Weeks Incubation (0.1 ppm)	% NH4-N Remaining After 2 Weeks Incubation (10 ppm)	% NH4-N Remaining After 2 Weeks Incubation (0.6 ppm)	% NH4-N Remaining After 2 Weeks Incubation (1.25 ppm)	% NH4-N Remaining After 2 Weeks Incubation (2.5 ppm)	% NH4-N Remaining After 2 Weeks Incubation (5 ppm)
Cc1cc(C)n2nc(S(=O)(=O)Nc3c(C)cccc3C(=O)O)nc2n1 [Compound 103]	0%	15%	43%	53%							
COC(=O)c1ccccc1NS(=O)(=O)c1nc2nc(C)c3c(n2n1)CCC3 [Compound 109]			41%		0%	0%	92%				
Cc1nc2nc(S(=O)(=O)Nc3ccccc3C(=O)OC(C)C)nn2c2c1CCC2 [Compound 110]			13%		0%	0%	59%				
CSc1ccccc1NS(=O)(=O)c1nc2ncc(Cl)cn2n1 [Compound 115]	37%	41%	64%	86%							
O=S(=O)(Nc1c(F)cccc1Cl)c1nc2ncc(Cl)cn2n1 [Compound 116]	27%	50%	57%	81%							
O=S(=O)(Nc1ccccc1)c1nc2ncc(Cl)cn2n1 [Compound 120]	71%	46%	63%	87%							
CSc1ccccc1NS(=O)(=O)c1nc2ncccn2n1 [Compound 135]			12%		0%	0%	100%				
CSc1ccccc1NS(=O)(=O)c1nc2nc(C)ccn2n1 [Compound 142]			62%		0%	5%	98%				
COC(=O)c1cccc(C)c1NS(=O)(=O)c1nc2nc(C)ccn2n1 [Compound 146]	19%	48%	60%	79%							
Cc1ccn2nc(S(=O)(=O)Nc3c(Cl)ccc(C)c3Cl)nc2n1 [Compound 147]	41%	55%	72%	87%							
Cc1ccn2nc(S(=O)(=O)Nc3c(C)cccc3Br)nc2n1 [Compound 148]							93%	69%	75%	81%	89%
Cc1ccn2nc(S(=O)(=O)Nc3ccccc3[S+]([O-])C(F)(F)C(F)F)nc2n1 (centres unmarked) [Compound 149]							62%	0%	0%	5%	26%
CSc1cccc(C)c1NS(=O)(=O)c1nc2nc(C)ccn2n1 [Compound 150]	83%	74%	91%	93%							
COC(=O)c1cccc(F)c1NS(=O)(=O)c1nc2nc(C)ccn2n1 [Compound 159]	49%	56%	80%	94%							
Cc1nc2nc(S(=O)(=O)Nc3c(Cl)cccc3Cl)nn2c(C)c1Cl [Compound 200]	0%	31%	50%	60%							
CCOc1cnc2nc(S(=O)(=O)Nc3c(C)cccc3Cl)nn2c1 [Compound 202]	0%	0%	0%	32%							
Cc1c(C(=O)O)cnc2nc(S(=O)(=O)Nc3c(Cl)cccc3Cl)nn12 [Compound 224]	1%	0%	27%	63%							
O=[N+]([O-])c1ccc(-c2cnc3nc(S(=O)(=O)Nc4c(Cl)cccc4Cl)nn3c2)cc1 [Compound 226]	2%	17%	42%	69%							
COC(=O)c1cc2ccccc2cc1NS(=O)(=O)c1nc2nc(C)cc(C)n2n1 [Compound 245]	0%	0%	0%	30%							
Cc1cc(C)n2nc(S(=O)(=O)Nc3ncc(Cl)cc3Cl)nc2n1 [Compound 251]			0%		0%	0%	29%				
Cc1cc(C)n2nc(S(=O)(=O)Nc3ncccc3Cl)nc2n1 [Compound 252]			38%		0%	0%	82%				
Cc1cc(C)n2nc(S(=O)(=O)Nc3ccncc3)nc2n1 [Compound 253]			0%		0%	5%	17%				
Cc1cc(C)n2nc(S(=O)(=O)Nc3cccnc3Cl)nc2n1 [Compound 255]			37%		0%	0%	72%				
Cc1cc(C)n2nc(S(=O)(=O)Nc3nccs3)nc2n1 [Compound 256]			10%		20%	13%	48%				
COC(=O)c1sccc1NS(=O)(=O)c1nc2nc(C)cc(C)n2n1 [Compound 257]			0%		0%	0%	58%				
Cc1cc(C)n2nc(S(=O)(=O)Nc3nc4c(Cl)cccc4s3)nc2n1 [Compound 258]			23%		0%	0%	78%				
CCOC(=O)CN(c1c(Cl)cccc1Cl)S(=O)(=O)c1nc2nc(C)cc(C)n2n1 [Compound 264]	0%	1%	26%	37%							
